Measurements as given in US6376497B1, “Antifungal azole derivatives having a fluorinated vinyl group and process for preparing same” (Korea Research Institute of Chemical Technology, priority 1999, dated 2002).

Assays:
Experiment in all cases: In vitro antifungal activity, microbroth dilution MIC
Format in all cases: cell-based
[1] = system: Cryptococcus neoformans B. 42419; details: 4 to 48 hours; for Minimal inhibitory concentration(MIC), Cry. neoformans B. 42419: RPMI-1640, 35° C., no growth observed
Method: (§1) In vitro antifungal activities of the inventive antifungal compounds were evaluated using the test strains shown in Table VIII by the following microbroth dilution method which is a modified version of the procedure recommended by National Committee for Clinical Laboratory Standards(see National Committee for Clinical Laboratory Standards, 1992, Reference methods for broth dilution antifungal susceptibility testing of yeasts, Proposed standard M27-P, National Committee for clinical laboratory standards, Villanova, Pa; and National Committee for Clinical Laboratory Standards, 1995, Reference methods for broth dilution antifungal susceptibility testing of yeasts. Tentative standard M27-T, National Committee for clinical laboratory standards, Villanova, Pa).
(§2) Sabourad Dextrose Agar(Difco) was used as a culture medium, and RPMI-1640 broth(Sigma. Co. w/L-glutamine, wo/NaHCO3)(0.165 M MOPS, pH 7.0), as a dilution medium.
(§3) Each of the test strains were subcultured in Sabourad Dextrose Agar medium twice and a stain sample was taken from prominent colonies and suspended in sterile physiological saline solution in a cap tube. The turbidity of the suspension was adjusted to that of the Mcfarland 0.5 standard sample(approximately 10^6 CFU/ml). Then the suspension was diluted 500-fold with sterile RPMI-1640 liquid medium to 2×10^3 CFU/ml.
(§4) Each of the test compounds(the compounds obtained in Examples 1 to 150 and comparative compounds, i.e., fluconazole(FCZ) and itraconazole (ICZ)), was dissolved in DMSO to give a stock solution having a concentration of 4000 μg/ml and the stock solution was successively diluted to obtain test solutions having test compound concentrations of 200, 100, 50, 25, 12.5, 6.25, 3.13, 1.56, 0.78, 0.39, 0.20 and 0.10 μg/ml, respectively.
(§5) 0.1 ml portion of the test solutions were added to the wells of a sterile 96 well plate. Then, 0.1 ml portion of each of the test strain solutions were added successively to the wells and the plate was incubated at 35° C. for 4 to 48 hours.
(§6) Minimal inhibitory concentration(MIC) of each compound was defined as the concentration of the test compound where no growth of the strain could be observed.

[2] = system: Candida albicans IFO. 1385; details: 4 to 48 hours; for Minimal inhibitory concentration(MIC), C. albicans IFO. 1385: RPMI-1640, 35° C., no growth observed
Method: as §1, §2, §3, §4, §5, §6

[3] = system: Aspergillus niger A. 16404; details: 4 to 48 hours; for Minimal inhibitory concentration(MIC), A. niger A. 16404: RPMI-1640, 35° C., no growth observed
Method: as §1, §2, §3, §4, §5, §6

[4] = system: Cryptococcus neoformans A. 34144; details: 4 to 48 hours; for Minimal inhibitory concentration(MIC), Cry. neoformans A. 34144: RPMI-1640, 35° C., no growth observed
Method: as §1, §2, §3, §4, §5, §6

[5] = system: Candida krusei K. 11655; details: 4 to 48 hours; for Minimal inhibitory concentration(MIC), C. krusei K. 11655: RPMI-1640, 35° C., no growth observed
Method: as §1, §2, §3, §4, §5, §6

[6] = system: Candida tropicalis A. 13803; details: 4 to 48 hours; for Minimal inhibitory concentration(MIC), C. tropicalis A. 13803: RPMI-1640, 35° C., no growth observed
Method: as §1, §2, §3, §4, §5, §6

[7] = system: Candida albicans C1-2; details: 4 to 48 hours; for Minimal inhibitory concentration(MIC), C. albicans C1-2: RPMI-1640, 35° C., no growth observed
Method: as §1, §2, §3, §4, §5, §6

[8] = system: Candida parapsitosis A. 7330; details: 4 to 48 hours; for Minimal inhibitory concentration(MIC), C. parapsitosis A. 7330: RPMI-1640, 35° C., no growth observed
Method: as §1, §2, §3, §4, §5, §6

[9] = system: Trichophyton mentagrophytes B. 32663; details: 4 to 48 hours; for Minimal inhibitory concentration(MIC), T. mentagrophytes B. 32663: RPMI-1640, 35° C., no growth observed
Method: as §1, §2, §3, §4, §5, §6

[10] = system: Torulopsis glabrata B. 16205; details: 4 to 48 hours; for Minimal inhibitory concentration(MIC), T. glabrata B. 16205: RPMI-1640, 35° C., no growth observed
Method: as §1, §2, §3, §4, §5, §6

[11] = system: Cryptococcus neoformans IFM. 40092; details: 4 to 48 hours; for Minimal inhibitory concentration(MIC), Cry. neoformans IFM. 40092: RPMI-1640, 35° C., no growth observed
Method: as §1, §2, §3, §4, §5, §6

[12] = system: Candida albicans A. 10231; details: 4 to 48 hours; for Minimal inhibitory concentration(MIC), C. albicans A. 10231: RPMI-1640, 35° C., no growth observed
Method: as §1, §2, §3, §4, §5, §6

[13] = system: Trichophyton mentagrophytes A. 9129; details: 4 to 48 hours; for Minimal inhibitory concentration(MIC), T. mentagrophytes A. 9129: RPMI-1640, 35° C., no growth observed
Method: as §1, §2, §3, §4, §5, §6

[14] = system: Aspergillus furnigatus B. 19119; details: 4 to 48 hours; for Minimal inhibitory concentration(MIC), A furnigatus B. 19119: RPMI-1640, 35° C., no growth observed
Method: as §1, §2, §3, §4, §5, §6

[15] = system: Candida pseudotropicalis K. 11658; details: 4 to 48 hours; for Minimal inhibitory concentration(MIC), C. pseudotropicalis K. 11658: RPMI-1640, 35° C., no growth observed
Method: as §1, §2, §3, §4, §5, §6

Minimal inhibitory concentration(MIC), Cry. neoformans B. 42419 [1]	Minimal inhibitory concentration(MIC), C. albicans IFO. 1385 [2]	Minimal inhibitory concentration(MIC), A. niger A. 16404 [3]	Minimal inhibitory concentration(MIC), Cry. neoformans A. 34144 [4]	Minimal inhibitory concentration(MIC), C. krusei K. 11655 [5]	Minimal inhibitory concentration(MIC), C. tropicalis A. 13803 [6]	Minimal inhibitory concentration(MIC), C. albicans C1-2 [7]	Minimal inhibitory concentration(MIC), C. parapsitosis A. 7330 [8]	Minimal inhibitory concentration(MIC), T. mentagrophytes B. 32663 [9]	Minimal inhibitory concentration(MIC), T. glabrata B. 16205 [10]	Minimal inhibitory concentration(MIC), Cry. neoformans IFM. 40092 [11]	Minimal inhibitory concentration(MIC), C. albicans A. 10231 [12]	Minimal inhibitory concentration(MIC), T. mentagrophytes A. 9129 [13]	Minimal inhibitory concentration(MIC), A furnigatus B. 19119 [14]	Minimal inhibitory concentration(MIC), C. pseudotropicalis K. 11658 [15]	Compound	also measured
0.78 µg/mL	1.56 µg/mL	>100 µg/mL	0.78 µg/mL	3.13 µg/mL	>100 µg/mL	>100 µg/mL	3.13 µg/mL	6.25 µg/mL	>100 µg/mL	≦0.10 μg/ml	>100 µg/mL	12.5 µg/mL	>100 µg/mL	1.56 µg/mL	CC(C)(C)c1ccc(C(=C(F)N2CCN(c3ccc(OCC4COC(Cn5ccnc5)(c5ccc(Cl)cc5Cl)O4)cc3)CC2)C(F)(F)F)cc1 (mixture of isomers) [Ex. 128]	–
0.78 µg/mL	0.78 µg/mL	100 µg/mL	0.78 µg/mL	1.56 µg/mL	>100 µg/mL	>100 µg/mL	0.78 µg/mL	0.39 µg/mL	100 µg/mL	≦0.10 μg/ml	>100 µg/mL	6.25 µg/mL	25.0 µg/mL	1.56 µg/mL	Cc1cccc(C(=C(F)N2CCN(c3ccc(OCC4COC(Cn5ccnc5)(c5ccc(F)cc5F)O4)cc3)CC2)C(F)(F)F)c1 (mixture of isomers) [Ex. 139]	–
–	–	–	–	–	–	–	–	–	–	–	–	–	–	–	FC(OCC1COC(Cn2ccnc2)(c2ccc(F)cc2F)O1)=C(c1cc(Cl)cc(Cl)c1)C(F)(F)F (mixture of isomers) [Ex. 67]	Minimal inhibitory concentration (MIC) ([1]; Cry. neoformans B. 42419, RPMI-1640, 35° C.): 1.56 µg/mL; Minimal inhibitory concentration (MIC) ([2]; C. albicans IFO. 1385, RPMI-1640, 35° C.): 0.78 µg/mL; Minimal inhibitory concentration (MIC) ([3]; A. niger A. 16404, RPMI-1640, 35° C.): 100 µg/mL; Minimal inhibitory concentration (MIC) ([4]; Cry. neoformans A. 34144, RPMI-1640, 35° C.): 1.56 µg/mL; Minimal inhibitory concentration (MIC) ([5]; C. krusei K. 11655, RPMI-1640, 35° C.): 50.0 µg/mL; Minimal inhibitory concentration (MIC) ([6]; C. tropicalis A. 13803, RPMI-1640, 35° C.): 100 µg/mL; Minimal inhibitory concentration (MIC) ([7]; C. albicans C1-2, RPMI-1640, 35° C.): 12.5 µg/mL; Minimal inhibitory concentration (MIC) ([8]; C. parapsitosis A. 7330, RPMI-1640, 35° C.): 100 µg/mL; Minimal inhibitory concentration (MIC) ([9]; T. mentagrophytes B. 32663, RPMI-1640, 35° C.): 1.56 µg/mL; Minimal inhibitory concentration (MIC) ([10]; T. glabrata B. 16205, RPMI-1640, 35° C.): 6.25 µg/mL; Minimal inhibitory concentration (MIC) ([11]; Cry. neoformans IFM. 40092, RPMI-1640, 35° C.): 0.20 µg/mL; Minimal inhibitory concentration (MIC) ([12]; C. albicans A. 10231, RPMI-1640, 35° C.): 12.5 µg/mL; Minimal inhibitory concentration (MIC) ([13]; T. mentagrophytes A. 9129, RPMI-1640, 35° C.): 6.25 µg/mL; Minimal inhibitory concentration (MIC) ([14]; A furnigatus B. 19119, RPMI-1640, 35° C.): 3.13 µg/mL; Minimal inhibitory concentration (MIC) ([15]; C. pseudotropicalis K. 11658, RPMI-1640, 35° C.): 25.0 µg/mL
